Values of other authors, collected in article PMC5408581, “Using X-ray Crystallography, Biophysics, and Functional Assays to Determine the Mechanisms Governing T-cell Receptor Recognition of Cancer Antigens” (Journal of Visualized Experiments : JoVE, 2017).
Read-outs that look alike come from different tables or passages of the source.

How the values were obtained:
[1] = biological target: PMEL17 TCR (TRAV21 TRBV7-3); set-up: method as in PMID 26917722; settings: SPR, CM5 chip, 25 °C, table reprinted
[2] = biological target: gp100 TCR (TRAV17 TRBV19); set-up: method as in PMID 26917722; settings: SPR, CM5 chip, 25 °C, table reprinted; for Kd: read-out: gp100 TCR TRAV17 TRBV19 Affinity KD
[3] = peptide refolded with biotin-tagged HLA-A*0201/β2m and coupled via streptavidin (~500-600 RU), ten serial dilutions of soluble TCR, 30 µL/min, equilibrium KD by nonlinear fit

Sequence: YLAPGPVTA [YLE-3A, with HLA-A*0201 called A2-YLE-3A]
- PMEL17 TCR TRAV21 TRBV7-3 Affinity KD [1, 3]: No binding
- gp100 TCR TRAV17 TRBV19 Affinity KD [2, 3]: No binding

Sequence: YLEPAPVTA [YLE-5A, with HLA-A*0201 called A2-YLE-5A]
- Kd ([1]; read-out: PMEL17 TCR TRAV21 TRBV7-3 Affinity KD, peptide-HLA-A*0201 coupled via streptavidin, soluble TCR injected, bound given in mM): > 1 mM
- Kd ([2]; peptide-HLA-A*0201 coupled via streptavidin, soluble TCR injected, bound given in mM): > 1 mM

Sequence: YLEPGPVTA [presented by HLA-A*0201 it is called A2-YLE]
- Kd [2, 3]: 0.0265 ± 0.0023 mM

Sequence: YLEPGPVTV [YLE-9V, with HLA-A*0201 called A2-YLE-9V]
- Kd [2, 3]: 0.0219 ± 0.0024 mM
